How the values were obtained:
LIMK2 = LIMK2 (Homo sapiens, UniProt P53671); assay: in vitro kinase enzyme assay; type: biochemical
LIMK1 [1] = biological target: T1, LIMK1 (Homo sapiens, UniProt P53667); assay: in vitro kinase enzyme assay; type: biochemical
LIMK1 [2] = biological target: T1, LIMK1; assay: biochemical; parameters: KINOMEscan active-site competition binding, percent of control (100 = no competition); settings: competition binding, percent control
Text: Kinases inhibited >25% to 50% have yellow circles, 51% to 75% have orange circles, and >76% have red circles. In each case, the size of the circle is proportional to percentage inhibition.

ADCK3 = biological target: T2, ADCK3 (Homo sapiens, UniProt Q8NI60); assay: biochemical; parameters: KINOMEscan active-site competition binding, percent of control (100 = no competition); settings: competition binding, percent control
T2 construct: gene COQ8A
T2 sequence (Q8NI60 whole entry): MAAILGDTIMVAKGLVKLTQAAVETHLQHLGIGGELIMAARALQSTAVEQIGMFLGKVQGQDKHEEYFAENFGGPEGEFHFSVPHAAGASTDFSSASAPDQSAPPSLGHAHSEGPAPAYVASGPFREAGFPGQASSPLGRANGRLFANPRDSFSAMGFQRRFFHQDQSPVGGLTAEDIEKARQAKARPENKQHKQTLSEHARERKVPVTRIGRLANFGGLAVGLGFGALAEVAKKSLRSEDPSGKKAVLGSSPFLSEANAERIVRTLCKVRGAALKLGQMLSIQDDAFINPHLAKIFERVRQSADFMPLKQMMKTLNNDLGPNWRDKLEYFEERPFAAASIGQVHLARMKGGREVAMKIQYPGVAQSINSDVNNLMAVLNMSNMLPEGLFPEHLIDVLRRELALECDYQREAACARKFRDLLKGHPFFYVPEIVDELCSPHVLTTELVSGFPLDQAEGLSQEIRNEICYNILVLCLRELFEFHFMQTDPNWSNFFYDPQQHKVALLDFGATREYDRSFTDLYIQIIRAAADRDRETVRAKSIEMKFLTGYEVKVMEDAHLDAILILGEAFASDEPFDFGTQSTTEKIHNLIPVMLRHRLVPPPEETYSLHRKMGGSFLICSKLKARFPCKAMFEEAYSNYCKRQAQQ

BMPR1B = BMPR1B (Homo sapiens, UniProt O00238); assay: biochemical; parameters: KINOMEscan active-site competition binding, percent of control (100 = no competition); settings: competition binding, percent control
Chain of BMPR1B (O00238 whole entry): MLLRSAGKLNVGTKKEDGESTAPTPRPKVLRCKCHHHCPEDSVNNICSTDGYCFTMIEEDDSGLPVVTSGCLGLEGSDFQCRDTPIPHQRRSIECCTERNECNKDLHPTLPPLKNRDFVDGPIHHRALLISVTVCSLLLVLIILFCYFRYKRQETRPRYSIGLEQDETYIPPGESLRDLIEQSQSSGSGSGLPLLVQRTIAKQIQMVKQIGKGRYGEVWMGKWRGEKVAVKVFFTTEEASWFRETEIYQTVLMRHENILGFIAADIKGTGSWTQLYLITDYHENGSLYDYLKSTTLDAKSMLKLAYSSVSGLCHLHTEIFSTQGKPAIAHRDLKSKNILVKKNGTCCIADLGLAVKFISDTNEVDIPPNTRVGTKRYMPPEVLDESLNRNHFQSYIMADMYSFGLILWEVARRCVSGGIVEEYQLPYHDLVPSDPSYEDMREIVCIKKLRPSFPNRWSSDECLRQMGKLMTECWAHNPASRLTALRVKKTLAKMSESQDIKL

DAPK2 = DAPK2 (Homo sapiens, UniProt Q9UIK4); assay: biochemical; parameters: KINOMEscan active-site competition binding, percent of control (100 = no competition); settings: competition binding, percent control
Chain of DAPK2 (Q9UIK4 whole entry): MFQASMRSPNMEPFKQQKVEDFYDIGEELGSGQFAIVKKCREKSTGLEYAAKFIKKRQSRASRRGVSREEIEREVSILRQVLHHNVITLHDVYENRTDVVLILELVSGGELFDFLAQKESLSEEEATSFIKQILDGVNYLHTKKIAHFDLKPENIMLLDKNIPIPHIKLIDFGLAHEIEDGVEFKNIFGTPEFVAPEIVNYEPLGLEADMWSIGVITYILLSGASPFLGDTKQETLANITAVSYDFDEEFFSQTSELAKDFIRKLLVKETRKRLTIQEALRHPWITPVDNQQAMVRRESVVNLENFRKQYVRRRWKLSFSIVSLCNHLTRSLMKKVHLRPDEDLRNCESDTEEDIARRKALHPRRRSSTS

[3] = biological target: EGFR(L747-S752del, P753S) (Homo sapiens, UniProt P00533, DEL747-752/P753S); assay: biochemical; parameters: KINOMEscan active-site competition binding, percent of control (100 = no competition); settings: competition binding, percent control
Chain of EGFR(L747-S752del, P753S) (P00533 with tags, fused parts or gaps DEL747-752/P753S): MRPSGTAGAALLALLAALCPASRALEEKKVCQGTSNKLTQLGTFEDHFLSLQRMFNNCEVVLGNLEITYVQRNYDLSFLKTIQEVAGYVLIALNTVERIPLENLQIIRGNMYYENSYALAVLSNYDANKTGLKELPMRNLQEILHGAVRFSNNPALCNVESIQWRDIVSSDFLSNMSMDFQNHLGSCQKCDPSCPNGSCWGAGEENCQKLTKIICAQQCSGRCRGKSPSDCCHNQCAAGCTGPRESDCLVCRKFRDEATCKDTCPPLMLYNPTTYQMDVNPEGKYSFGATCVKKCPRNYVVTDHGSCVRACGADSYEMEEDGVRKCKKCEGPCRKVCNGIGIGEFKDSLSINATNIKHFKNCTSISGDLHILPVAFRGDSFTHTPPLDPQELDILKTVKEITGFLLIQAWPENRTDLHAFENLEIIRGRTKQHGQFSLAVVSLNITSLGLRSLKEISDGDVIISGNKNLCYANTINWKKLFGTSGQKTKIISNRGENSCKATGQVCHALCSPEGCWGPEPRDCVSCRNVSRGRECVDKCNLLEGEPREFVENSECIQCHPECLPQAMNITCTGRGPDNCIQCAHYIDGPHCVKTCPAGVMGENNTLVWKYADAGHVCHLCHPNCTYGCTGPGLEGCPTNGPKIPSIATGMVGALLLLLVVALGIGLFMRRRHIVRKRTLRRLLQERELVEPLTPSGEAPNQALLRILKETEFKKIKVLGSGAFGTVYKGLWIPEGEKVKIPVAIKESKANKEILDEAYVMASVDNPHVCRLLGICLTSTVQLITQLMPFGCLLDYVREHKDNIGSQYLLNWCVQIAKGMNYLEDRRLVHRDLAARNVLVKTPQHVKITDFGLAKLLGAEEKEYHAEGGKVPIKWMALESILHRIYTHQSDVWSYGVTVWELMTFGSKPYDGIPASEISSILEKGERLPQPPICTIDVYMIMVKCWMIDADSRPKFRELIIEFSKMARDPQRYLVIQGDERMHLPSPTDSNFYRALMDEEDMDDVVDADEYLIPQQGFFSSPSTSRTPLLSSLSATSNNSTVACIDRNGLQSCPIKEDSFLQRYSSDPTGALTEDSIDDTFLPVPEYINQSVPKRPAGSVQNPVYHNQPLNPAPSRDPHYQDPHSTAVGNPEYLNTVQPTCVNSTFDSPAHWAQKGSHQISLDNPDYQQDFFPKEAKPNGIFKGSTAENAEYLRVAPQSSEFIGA

GCN2(Kin.Dom.2,S808G) = biological target: T3, GCN2(Kin.Dom.2,S808G) (Homo sapiens, UniProt Q9P2K8, S808G); assay: biochemical; parameters: KINOMEscan active-site competition binding, percent of control (100 = no competition); settings: competition binding, percent control
T3 construct: gene EIF2AK4; Kin.Dom.2
T3 sequence (Q9P2K8 whole entry S808G): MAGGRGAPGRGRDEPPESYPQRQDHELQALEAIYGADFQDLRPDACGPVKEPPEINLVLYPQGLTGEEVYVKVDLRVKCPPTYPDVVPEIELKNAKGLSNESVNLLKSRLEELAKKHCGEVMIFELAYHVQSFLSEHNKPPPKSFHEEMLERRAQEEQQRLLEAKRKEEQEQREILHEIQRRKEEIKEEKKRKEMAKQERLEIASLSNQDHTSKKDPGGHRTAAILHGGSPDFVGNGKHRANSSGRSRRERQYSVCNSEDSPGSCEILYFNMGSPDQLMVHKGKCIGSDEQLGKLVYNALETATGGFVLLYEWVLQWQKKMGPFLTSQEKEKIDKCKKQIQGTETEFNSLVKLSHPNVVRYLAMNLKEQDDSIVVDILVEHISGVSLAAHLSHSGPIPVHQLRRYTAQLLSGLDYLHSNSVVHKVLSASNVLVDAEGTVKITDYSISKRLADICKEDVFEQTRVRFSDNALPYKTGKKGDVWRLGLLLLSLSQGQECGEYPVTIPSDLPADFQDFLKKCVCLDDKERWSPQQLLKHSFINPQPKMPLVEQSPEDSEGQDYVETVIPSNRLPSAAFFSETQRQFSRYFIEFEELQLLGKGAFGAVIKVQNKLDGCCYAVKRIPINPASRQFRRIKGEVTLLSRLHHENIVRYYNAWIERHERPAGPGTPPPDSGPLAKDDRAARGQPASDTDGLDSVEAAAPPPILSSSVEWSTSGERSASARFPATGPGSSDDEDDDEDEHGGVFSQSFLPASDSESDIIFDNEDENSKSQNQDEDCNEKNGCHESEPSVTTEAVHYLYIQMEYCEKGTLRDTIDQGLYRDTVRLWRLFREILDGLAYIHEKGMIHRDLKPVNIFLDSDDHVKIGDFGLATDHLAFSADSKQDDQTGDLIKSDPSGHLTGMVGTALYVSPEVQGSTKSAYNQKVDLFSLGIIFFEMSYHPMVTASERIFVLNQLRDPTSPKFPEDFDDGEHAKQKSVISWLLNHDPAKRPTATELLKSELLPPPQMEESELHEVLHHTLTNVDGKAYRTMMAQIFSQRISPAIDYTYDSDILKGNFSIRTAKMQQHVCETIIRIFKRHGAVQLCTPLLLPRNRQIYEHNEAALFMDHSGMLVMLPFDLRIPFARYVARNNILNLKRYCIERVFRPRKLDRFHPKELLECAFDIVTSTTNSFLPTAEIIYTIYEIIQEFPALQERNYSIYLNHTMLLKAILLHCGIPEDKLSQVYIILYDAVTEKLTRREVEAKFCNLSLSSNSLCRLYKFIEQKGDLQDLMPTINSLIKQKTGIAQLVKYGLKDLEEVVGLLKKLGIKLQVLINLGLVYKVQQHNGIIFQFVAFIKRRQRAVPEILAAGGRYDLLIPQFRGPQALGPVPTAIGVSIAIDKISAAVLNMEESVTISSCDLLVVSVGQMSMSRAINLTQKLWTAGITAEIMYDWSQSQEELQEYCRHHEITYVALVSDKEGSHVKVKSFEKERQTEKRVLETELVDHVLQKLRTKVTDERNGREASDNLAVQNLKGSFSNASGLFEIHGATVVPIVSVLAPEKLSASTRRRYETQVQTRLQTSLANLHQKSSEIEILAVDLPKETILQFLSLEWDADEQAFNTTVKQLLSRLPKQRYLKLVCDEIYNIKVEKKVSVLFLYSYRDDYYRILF

NEK1 = NEK1 (Homo sapiens, UniProt Q96PY6); assay: biochemical; parameters: KINOMEscan active-site competition binding, percent of control (100 = no competition); settings: competition binding, percent control
RIPK2 = RIPK2 (Homo sapiens, UniProt O43353); assay: biochemical; parameters: KINOMEscan active-site competition binding, percent of control (100 = no competition); settings: competition binding, percent control
Chain of RIPK2 (O43353 whole entry): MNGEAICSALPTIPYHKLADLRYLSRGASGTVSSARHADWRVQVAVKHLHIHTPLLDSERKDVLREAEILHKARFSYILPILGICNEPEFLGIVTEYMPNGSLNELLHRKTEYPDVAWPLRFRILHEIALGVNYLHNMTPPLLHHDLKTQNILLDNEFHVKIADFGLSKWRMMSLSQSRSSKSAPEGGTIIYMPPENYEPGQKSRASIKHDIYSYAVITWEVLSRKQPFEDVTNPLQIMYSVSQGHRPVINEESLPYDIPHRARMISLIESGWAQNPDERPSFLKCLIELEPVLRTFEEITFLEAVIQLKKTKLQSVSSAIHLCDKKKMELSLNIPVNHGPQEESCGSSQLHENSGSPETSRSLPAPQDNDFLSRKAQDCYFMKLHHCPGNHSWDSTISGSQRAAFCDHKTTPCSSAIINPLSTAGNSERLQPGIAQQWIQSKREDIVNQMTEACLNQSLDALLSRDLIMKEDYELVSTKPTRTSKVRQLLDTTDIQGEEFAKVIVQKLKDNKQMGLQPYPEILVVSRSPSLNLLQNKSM

Row | SMILES | IC50 (LIMK2) [nM] | IC50 (LIMK1 [1]) [nM] | remaining binding at 10 µM (LIMK1 [2]) [%] | remaining binding at 10 µM (ADCK3) [%] | remaining binding at 10 µM (BMPR1B) [%] | remaining binding at 10 µM (DAPK2) [%] | remaining binding at 10 µM [3] [%] | remaining binding at 10 µM (GCN2(Kin.Dom.2,S808G)) [%] | remaining binding at 10 µM (NEK1) [%] | remaining binding at 10 µM (RIPK2) [%]
1 | COc1ccc(-c2cnccc2-c2cnc(NC(=O)C(C)C)s2)c(C(F)(F)F)c1 [CRT0105446, N-{5-[3-(4-Methoxy-2-trifluoromethyl-phenyl)-pyridin-4-yl]-hiazol-2-yl}-isobutyramide] | 32 | 8 | 2 | 98 | 92 | 87 | 92 | 92 | 100 | 80
2 | Cc1ccc(-c2cnccc2-c2cnc(Nc3ccc(O)cc3)s2)c(Cl)c1 [CRT0105950, 4-{5-[3-(2-Chloro-4-methyl-phenyl)-pyridin-4-yl]-thiazol-2-ylamino}-phenol] | 1 |  |  | 56 | 29 | 53 | 66 | 94 | 81 | 18

Source: publication PMC4770715, “LIM kinase inhibitors disrupt mitotic microtubule organization and impair tumor cell proliferation” (Oncotarget, 2015)
